This is an account of results in patent publication EP2669372A1, “HPPD variants and methods of use” (Bayer CropScience AG, priority 2010, dated 2012).

Where two headings read alike, the source gives them in different places.

Test in all cases: biochemical
In test [1] the target is T1, Arabidopsis HPPD single point mutant "SEQ ID No. 35" (Arabidopsis thaliana, UniProt P93836, E252S).
T1 construct: encoding mutant HPPD polypeptide, plus containing at the 5' end a nucleic acid encoding an alanine and 6 histidine amino acids; Ala + His6 behind Met1 (N); made in house; host or cells: E. coli BL21 (DE3) (described for the wild type construct)
From the text:
(§1) In this content, pI50-value means the log value of the concentration of inhibitor necessary to inhibit 50% of the enzyme activity in molar concentration.

Test [2] addresses T2, Arabidopsis HPPD single point mutant "SEQ ID No. 48" (Arabidopsis thaliana, UniProt P93836, K421Q).
T2 construct: encoding mutant HPPD polypeptide, plus containing at the 5' end a nucleic acid encoding an alanine and 6 histidine amino acids; made in house; host or cells: E. coli BL21 (DE3) (described for the wild type construct)
From the text: as §1

For test [3], the target named is T3, Arabidopsis HPPD single point mutant "SEQ ID No. 46" (Arabidopsis thaliana, UniProt P93836, K421I).
T3 construct: encoding mutant HPPD polypeptide, plus containing at the 5' end a nucleic acid encoding an alanine and 6 histidine amino acids; made in house; host or cells: E. coli BL21 (DE3) (described for the wild type construct)
From the text: as §1

Test [4] addresses T4, Arabidopsis HPPD single point mutant "SEQ ID No. 44" (Arabidopsis thaliana, UniProt P93836, L368M).
T4 construct: encoding mutant HPPD polypeptide, plus containing at the 5' end a nucleic acid encoding an alanine and 6 histidine amino acids; made in house; host or cells: E. coli BL21 (DE3) (described for the wild type construct)
From the text: as §1

In test [5] the target is T5, Arabidopsis HPPD single point mutant "SEQ ID No. 40" (Arabidopsis thaliana, UniProt P93836, V269A).
T5 construct: encoding mutant HPPD polypeptide, plus containing at the 5' end a nucleic acid encoding an alanine and 6 histidine amino acids; made in house; host or cells: E. coli BL21 (DE3) (described for the wild type construct)
From the text: as §1

Test [6] addresses T6, Arabidopsis HPPD single point mutant "SEQ ID No. 50" (Arabidopsis thaliana, UniProt P93836, K421V).
T6 construct: encoding mutant HPPD polypeptide, plus containing at the 5' end a nucleic acid encoding an alanine and 6 histidine amino acids; made in house; host or cells: E. coli BL21 (DE3) (described for the wild type construct)
From the text: as §1

In test [7] the target is T7, Arabidopsis HPPD single point mutant "SEQ ID No. 42" (Arabidopsis thaliana, UniProt P93836, P280A).
T7 construct: encoding mutant HPPD polypeptide, plus containing at the 5' end a nucleic acid encoding an alanine and 6 histidine amino acids; made in house; host or cells: E. coli BL21 (DE3) (described for the wild type construct)
From the text: as §1

T5 sequence (P93836 whole entry V269A): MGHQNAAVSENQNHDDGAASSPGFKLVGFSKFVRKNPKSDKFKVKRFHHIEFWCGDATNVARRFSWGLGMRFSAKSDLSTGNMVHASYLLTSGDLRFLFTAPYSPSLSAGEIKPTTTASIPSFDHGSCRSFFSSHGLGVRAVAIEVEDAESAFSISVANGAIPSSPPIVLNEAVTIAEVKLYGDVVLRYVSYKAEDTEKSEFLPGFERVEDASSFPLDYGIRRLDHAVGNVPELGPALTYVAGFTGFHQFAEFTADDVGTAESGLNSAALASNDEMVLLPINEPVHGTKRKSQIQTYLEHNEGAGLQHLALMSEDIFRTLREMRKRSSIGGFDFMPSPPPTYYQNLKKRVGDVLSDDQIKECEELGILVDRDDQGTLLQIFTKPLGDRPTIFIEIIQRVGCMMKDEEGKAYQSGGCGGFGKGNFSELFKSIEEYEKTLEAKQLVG
T6 sequence (P93836 whole entry K421V): as the sequence (P93836 whole entry V269A) above, with A269V, K421V counted along it
T3 sequence (P93836 whole entry K421I): as the sequence (P93836 whole entry V269A) above, with A269V, K421I counted along it
T2 sequence (P93836 whole entry K421Q): as the sequence (P93836 whole entry V269A) above, with A269V, K421Q counted along it
T1 sequence (P93836 whole entry E252S): as the sequence (P93836 whole entry V269A) above, with E252S, A269V counted along it
T7 sequence (P93836 whole entry P280A): as the sequence (P93836 whole entry V269A) above, with A269V, P280A counted along it
T4 sequence (P93836 whole entry L368M): as the sequence (P93836 whole entry V269A) above, with A269V, L368M counted along it

`Cc1nn(C)c(O)c1C(=O)c1ccc(C(F)(F)F)cc1S(C)(=O)=O` [Pyrasulfotole]: the IC50 was 50.1 µM in test [1]; 15.8 µM in test [2]; 50.1 µM in test [3]; 10 µM in test [4] (read-out: pI50 (converted)); 39.8 µM in test [5]; 39.8 µM in test [6]. This compound also had an IC50 in test [7] of 39.8 µM.

On to `Cc1ccc(S(=O)(=O)Oc2c(C(=O)c3ccc(Cl)cc3Cl)c(C)nn2C)cc1` [Pyrazolat], for which the IC50 in test [1] is 20 µM; in test [2], 10 µM; in test [3], 31.6 µM; in test [4], 12.6 µM; in test [5] it was 39.8 µM; in test [6] it was 31.6 µM. This compound also had an IC50 in test [7] of 20 µM.
